Laboratory results published in patent publication US12117455B2, “Early detection marker for degenerative osteoarthritis with TRIM24-RIP3 axis” (AJOU UNIVERSITY INDUSTRY-ACADEMIC COOPERATION FOUNDATION, priority 2020, dated 2024).
“Also recorded” adds a separate entry of the source. Where a SMILES comes first, the peptide text is derived from it. The star is where a group is joined. Cbz = O=C(OCc1ccccc1)*

Assays:
MLKL = MLKL protein levels in chondrocytes treated with proteasome or lysosome inhibitors (Western blotting); format: cell-based, mouse; conditions: treatment for 6 hours
Method: (§1) Cells were lysed in an M2 buffer, and mouse tissues were lysed in a lysis buffer containing 50 mM Tris-HCl (pH 7.5), 150 mM NaCl, 50 mM NaF, 1% Tween 20, 0.2% NP-40, and a protease inhibitor. Equal amounts of cell extracts were separated using SDS-PAGE (6% stacking gel and 10% running gel) and analyzed through immunoblotting.

chondrocytes = assay: Cell viability / cytotoxicity by LDH assay in chondrocytes; format: cell-based, mouse; conditions: for cytotoxic effects on chondrocytes (LDH release assay, Western blotting, phase-contrast microscopy): chondrocytes infected with Ad-C or Ad-Rip3
Method: Mouse articular chondrocytes were isolated from the cartilage of ICR mice on the 5th day after birth, enzymatically digested with protease and collagenase, and then maintained in DMEM (Capricorn Scientific GmbH: Hessen, Germany) supplemented with 10% FBS, 100 units/mL penicillin and 100 μg/mL streptomycin. On the 3rd day, cells (4.25×10^5 cells/well) were infected with adenovirus or treated with recombinant protein. Mlkl+/+ and Mlkl−/− MEFs were maintained in DMEM supplemented with 10% FBS and penicillin-streptomycin. Cell viability was assessed using a lactate dehydrogenase (LDH) colorimetric assay kit (Bio Vision (Milpitas, CA, USA)). Chondrocytes were dispensed into a 96-well dish (1.5×10^4 cells/well), cultured for 24 hours (5% CO2, 37° C.), and treated with various concentrations of AZ-628, selumetinib, and neratinib for 24 hours. The supernatant was analyzed using a microplate reader at 495 nm. Untreated (100% viable) and Triton X-100 treated (0% viable) samples were used for normalization. The viability was calculated as follows.

RIP3 = molecular target: T1, RIP3 (Mus musculus, UniProt Q9QZL0); assay: RIP3 kinase activity / RIP3 phosphorylation by Western blotting in Ad-Rip3-infected chondrocytes; format: cell-based; conditions: RIP3-overexpressing chondrocytes
T1 construct: host or cells: primary mouse articular chondrocytes (ICR mice), adenoviral infection
Method: (§2) Mouse articular chondrocytes were isolated from the cartilage of ICR mice on the 5th day after birth, enzymatically digested with protease and collagenase, and then maintained in DMEM (Capricorn Scientific GmbH: Hessen, Germany) supplemented with 10% FBS, 100 units/mL penicillin and 100 μg/mL streptomycin. On the 3rd day, cells (4.25×10^5 cells/well) were infected with adenovirus or treated with recombinant protein. Mlkl+/+ and Mlkl−/− MEFs were maintained in DMEM supplemented with 10% FBS and penicillin-streptomycin.
as §1

[1] = test system: RIP3-overexpressing chondrocytes; assay: MMP3, MMP13 and COX2 expression (RT-PCR, qPCR, Western blotting) in Ad-Rip3-infected chondrocytes; format: cell-based, mouse
Method: as §2, §1
Total RNA was extracted from articular chondrocytes using a TRIzol reagent (Molecular Research Center (Cincinnati, OH, USA)) and then reverse-transcribed into complementary DNA (cDNA) using ImProm-II™ Transcriptase (Promega (Madison, WI, USA)), followed by amplification through PCR or qPCR using the primers shown in Table 2 below. qPCR was performed using SYBR premix Ex Taq (TaKaRa Bio., Kusatsu, Shiga, Japan), and the results thereof were normalized to Gapdh and represented as fold changes compared to controls.

T1 sequence (Q9QZL0 whole entry): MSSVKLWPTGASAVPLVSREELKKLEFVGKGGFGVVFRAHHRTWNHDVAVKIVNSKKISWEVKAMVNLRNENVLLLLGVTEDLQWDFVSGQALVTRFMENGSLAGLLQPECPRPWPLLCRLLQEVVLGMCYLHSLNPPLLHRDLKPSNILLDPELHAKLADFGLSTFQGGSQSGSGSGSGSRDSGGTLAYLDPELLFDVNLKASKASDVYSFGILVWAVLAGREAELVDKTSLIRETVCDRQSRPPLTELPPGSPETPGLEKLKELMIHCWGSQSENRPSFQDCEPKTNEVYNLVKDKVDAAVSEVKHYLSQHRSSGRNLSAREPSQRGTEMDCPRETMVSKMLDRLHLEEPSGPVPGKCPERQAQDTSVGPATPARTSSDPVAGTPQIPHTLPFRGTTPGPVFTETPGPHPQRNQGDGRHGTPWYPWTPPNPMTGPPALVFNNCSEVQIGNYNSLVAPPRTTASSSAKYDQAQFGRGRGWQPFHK

Compound | MLKL protein levels (MLKL) | cytotoxic effects on chondrocytes (LDH release assay, Western blotting, phase-contrast microscopy) (chondrocytes) | further results
CCN(CC)CCCC(C)Nc1ccnc2cc(Cl)ccc12 (stereo not drawn) [CQ, Chloroquine diphosphate] | did not change |  | 
CC(C)S(=O)(=O)c1ccc2nccc(Nc3ccc4scnc4c3)c2c1 [GSK 872] |  | greater cytotoxic effects on chondrocytes than AZ-628 | 
CC(C)C[C@@H](C=O)NC(=O)[C@H](CC(C)C)NC(=O)[C@H](CC(C)C)NC(=O)OCc1ccccc1 [MG132] (Cbz-Leu-Leu-Leu-aldehyde) | did not change |  | 
Cc1ccc(NC(=O)c2cccc(C(C)(C)C#N)c2)cc1Nc1ccc2ncn(C)c(=O)c2c1 [AZ-628] |  | without chondrocyte toxicity | RIP3 (kinase) activity (RIP3): potent RIP3 kinase inhibitor; also recorded: attenuates RIP3 kinase activity; cytotoxic effects in chondrocytes (LDH assay) (chondrocytes; at 2 μM, 24 hours): no toxicity; inhibition of osteoarthritis manifestations in RIP3-overexpressing chondrocytes ([1]; compared with selumetinib or neratinib): more effectively inhibited; Mmp3 and Cox2 expression (osteoarthritis-related gene expression) ([1]; qPCR, RIP3-overexpressing chondrocytes treated with RIP3 kinase inhibitors): decreased; also recorded: attenuated
HS-1371 |  | greater cytotoxic effects on chondrocytes than AZ-628 | 
